Our source for the IC50 values is patent publication US8067589B2, “Heterocyclic compounds useful in treating diseases and conditions” (Pfizer Inc, priority 2007, dated 2011).

pIC50: −log10 of the molar value.

Chain of human recombinant H-PGDS (O60760 whole entry): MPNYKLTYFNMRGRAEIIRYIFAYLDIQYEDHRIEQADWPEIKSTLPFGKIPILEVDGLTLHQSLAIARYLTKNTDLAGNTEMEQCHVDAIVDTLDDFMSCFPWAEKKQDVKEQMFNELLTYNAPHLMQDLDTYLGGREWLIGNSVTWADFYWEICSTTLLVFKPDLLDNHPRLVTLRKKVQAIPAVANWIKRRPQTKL

The test addresses human recombinant H-PGDS (Homo sapiens, UniProt O60760). Nature of the test: Fluoresecence Intensity h-PGDSTBA Enzyme Assay. The following applies: IC50, 5.0 μM PGH2, 2.5 mM L-Glutathione, 10 min preincubation, 4-parameter fit, highest inhibitor concentration typically 1 μM.
Take `CC(C)(C)OC(=O)N1CCC(NC(=O)c2cnc(-c3ccccc3)nc2O)CC1` [Example 20, tert-Butyl 4-{[(4-hydroxy-2-phenyl-pyrimidin-5-yl)carbonyl]amino}piperidine-1-carboxylate]: the pIC50 (in general, the IC50 on a negative log10 scale, so that one unit is a factor of ten) is not above 6.00.
The result for `O=C(NC1CCN(Cc2ccccn2)CC1)c1cnc(-c2ccccc2)nc1O` [Example 21, 4-Hydroxy-2-phenyl-N-[1-(pyridin-2-ylmethyl)piperidin-4-yl]pyrimidine-5-carboxamide] reads 6.00; that for `O=C(NC1CCN(CC(F)(F)F)CC1)c1cnc(-c2ccccc2)nc1O` [Example 22, 4-Hydroxy-2-phenyl-N-[1-(2,2,2-trifluoroethyl)piperidin-4-yl] pyrimidine-5-carboxamide], not above 6.00.
The result for `COc1cccc(OC)c1CN1CCC(NC(=O)c2cnc(-c3ccccc3)nc2O)CC1` [Example 23, N-[1-(2,6-Dimethoxybenzyl)piperidin-4-yl]-4-hydroxy-2-phenyl-pyrimidine-5-carboxamide] reads not above 6.00.
The result for `CC(C)N1CCC(NC(=O)c2cnc(-c3ccccc3)nc2O)CC1` [Example 24, 4-Hydroxy-N-(1-isopropylpiperidin-4-yl)-2-phenyl pyrimidine-5-carboxamide] reads not above 6.00.
With `CNC(=O)N1CCC(NC(=O)c2cnc(-c3cccc(F)c3)nc2)CC1` [Example 25, 2-(3-Fluorophenyl)-N-{1-[(methylamino)carbonyl]piperidin-4-yl}pyrimidine-5-carboxamide], the pIC50 is 9.43.
To `O=C(NC1CCN(c2cccnn2)CC1)c1cnc(-c2cccc(F)c2)nc1` [Example 26, 2-(3-Fluorophenyl)-N-(1-pyridazin-3-ylpiperidin-4-yl)pyrimidine-5-carboxamide] belongs 9.87; to `O=C(NC1CCN(CC(F)(F)F)CC1)c1cnc(-c2cccc(F)c2)nc1` [Example 27, 2-(3-Fluorophenyl)-N-[1-(2,2,2-trifluoroethyl)piperidin-4-yl]pyrimidine-5-carboxamide], 9.78.
Take `N#Cc1ccc(OCC(c2ccccc2)N2CCC(NC(=O)c3cnc(-c4cccc(F)c4)nc3)CC2)cc1F` (stereo not shown) [Example 28, N-{1-[2-(4-Cyano-3-fluorophenoxy)-1-phenylethyl]piperidin-4-yl}-2-(3-fluorophenyl)pyrimidine-5-carboxamide]: the pIC50 was 8.35.
The result for `O=C(NC1CCN(C(COc2c(F)cccc2Cl)c2ccccc2)CC1)c1cnc(-c2cccc(F)c2)nc1` (stereo not shown) [Example 29, N-{1-[2-(2-Chloro-6-fluorophenoxy)-1-phenylethyl]piperidin-4-yl}-2-(3-fluorophenyl)pyrimidine-5-carboxamide] reads 7.94; that for `O=C(NC1CCN(C(COc2c(F)cccc2F)c2ccccc2)CC1)c1cnc(-c2cccc(F)c2)nc1` (stereo not shown) [Example 30, N-{1-[2-(2,6-Difluorophenoxy)-1-phenylethyl]piperidin-4-yl}-2-(3-fluorophenyl)pyrimidine-5-carboxamide], 8.18.
The result for `N#Cc1cc(Cl)ccc1OCC(c1ccccc1)N1CCC(NC(=O)c2cnc(-c3cccc(F)c3)nc2)CC1` (stereo not shown) [Example 31, N-{1-[2-(4-Cchloro-2-cyanophenoxy)-1-phenylethyl]piperidin-4-yl}-2-(3-fluorophenyl)pyrimidine-5-carboxamide] reads 8.11; that for `O=C(NC1CCN(C(COc2c(F)cc(F)cc2F)c2ccccc2)CC1)c1cnc(-c2cccc(F)c2)nc1` (stereo not shown) [Example 32, 2-(3-Fluorophenyl)-N-{1-[1-phenyl-2-(2,4,6-trifluorophenoxy)ethyl]piperidin-4-yl}pyrimidine-5-carboxamide], 8.05; that for `O=C(NC1CCN(C(COc2c(F)ccc(Cl)c2F)c2ccccc2)CC1)c1cnc(-c2cccc(F)c2)nc1` (stereo not shown) [Example 33, N-{1-[2-(3-Chloro-2,6-difluorophenoxy)-1-phenylethyl]piperidin-4-yl}-2-(3-fluorophenyl)pyrimidine-5-carboxamide], 7.81.
To `O=C(NC1CCN(C(COc2cc(F)cc(F)c2)c2ccccc2)CC1)c1cnc(-c2cccc(F)c2)nc1` (stereo not shown) [Example 34, N-{1-[2-(3,5-Difluorophenoxy)-1-phenylethyl]piperidin-4-yl}-2-(3-fluorophenyl)pyrimidine-5-carboxamide] belongs 8.19.
With `O=C(NC1CCN(CC2CC2)CC1)c1cnc(-c2cccc(F)c2)nc1` [Example 35, N-[1-(Cyclopropylmethyl)piperidin-4-yl]-2-(3-fluorophenyl)pyrimidine-5-carboxamide], the negative logarithm of the IC50 (pIC50) was 9.21.
To `O=C(NC1CCN(Cc2ccc(OC(F)(F)F)cc2)CC1)c1cnc(-c2cccc(F)c2)nc1` [Example 36, 2-(3-Fluorophenyl)-N-{1-[4-(trifluoromethoxy)benzyl]piperidin-4-yl}pyrimidine-5-carboxamide] belongs 8.34.
The result for `O=C(NC1CCN(Cc2ccc(C(F)(F)F)c(F)c2)CC1)c1cnc(-c2cccc(F)c2)nc1` [Example 37, 2-(3-Fluorophenyl)-N-{1-[3-fluoro-4-(trifluoromethyl)benzyl]piperidin-4-yl}pyrimidine-5-carboxamide] reads 8.15; that for `O=C(NC1CCN(C(COc2ccccc2)c2ccccc2)CC1)c1cnc(-c2cccc(F)c2)nc1` (stereo not shown) [Example 38, 2-(3-Fluorophenyl)-N-[1-(2-phenoxy-1-phenylethyl)piperidin-4-yl]pyrimidine-5-carboxamide], 8.17.
To `COc1cccc(OCC(c2ccccc2)N2CCC(NC(=O)c3cnc(-c4cccc(F)c4)nc3)CC2)c1` (stereo not shown) [Example 39, 2-(3-Fluorophenyl)-N-{1-[2-(3-methoxyphenoxy)-1-phenylethyl]piperidin-4-yl}pyrimidine-5-carboxamide] belongs 8.35; to `N#Cc1cccc(OCC(c2ccccc2)N2CCC(NC(=O)c3cnc(-c4cccc(F)c4)nc3)CC2)c1` (stereo not shown) [Example 40, N-{1-[2-(3-Cyanophenoxy)-1-phenylethyl]piperidin-4-yl}-2-(3-fluorophenyl)pyrimidine-5-carboxamide], 8.52; to `O=C(NC1CCN(C(COc2cccc(Cl)c2)c2ccccc2)CC1)c1cnc(-c2cccc(F)c2)nc1` (stereo not shown) [Example 41, N-{1-[2-(3-Chlorophenoxy)-1-phenylethyl]piperidin-4-yl}-2-(3-fluorophenyl)pyrimidine-5-carboxamide], 7.99.
As for `O=C(NC1CCN(C(COc2ccc(F)c(Cl)c2)c2ccccc2)CC1)c1cnc(-c2cccc(F)c2)nc1` (stereo not shown) [Example 42, N-{1-[2-(3-Chloro-4-fluorophenoxy)-1-phenylethyl]piperidin-4-yl}-2-(3-fluorophenyl)pyrimidine-5-carboxamide], the pIC50 is 7.26.
`Cc1ccc(Cl)c(OCC(c2ccccc2)N2CCC(NC(=O)c3cnc(-c4cccc(F)c4)nc3)CC2)c1F` (stereo not shown) [Example 43, N-{1-[2-(6-Chloro-2-fluoro-3-methylphenoxy)-1-phenylethyl]piperidin-4-yl}-2-(3-fluorophenyl)pyrimidine-5-carboxamide]: the pIC50 is 7.46.
The result for `O=C(NC1CCN(C(COc2ccc(F)cc2)c2ccccc2)CC1)c1cnc(-c2cccc(F)c2)nc1` (stereo not shown) [Example 44, N-{1-[2-(4-Fluorophenoxy)-1-phenylethyl]piperidin-4-yl}-2-(3-fluorophenyl)pyrimidine-5-carboxamide] reads 7.79; that for `Cc1cc(OCC(c2ccccc2)N2CCC(NC(=O)c3cnc(-c4cccc(F)c4)nc3)CC2)ccc1F` (stereo not shown) [Example 45, N-{1-[2-(4-Fluoro-3-methylphenoxy)-1-phenylethyl]piperidin-4-yl}-2-(3-fluorophenyl)pyrimidine-5-carboxamide], 7.85; that for `CCc1ccc(OCC(c2ccccc2)N2CCC(NC(=O)c3cnc(-c4cccc(F)c4)nc3)CC2)cc1` (stereo not shown) [Example 46, N-{1-[2-(4-Ethylphenoxy)-1-phenylethyl]piperidin-4-yl}-2-(3-fluorophenyl)pyrimidine-5-carboxamide], 7.62.
To `O=C(NC1CCN(C(COc2ccc(F)cc2F)c2ccccc2)CC1)c1cnc(-c2cccc(F)c2)nc1` (stereo not shown) [Example 47, N-{1-[2-(2,4-Difluorophenoxy)-1-phenylethyl]piperidin-4-yl}-2-(3-fluorophenyl)pyrimidine-5-carboxamide] belongs 7.99; to `O=C(NC1CCN(C(COc2ccc(C(F)(F)F)cc2)c2ccccc2)CC1)c1cnc(-c2cccc(F)c2)nc1` (stereo not shown) [Example 48, 2-(3-Fluorophenyl)-N-(1-{1-phenyl-2-[4-(trifluoromethyl)phenoxy]ethyl}piperidin-4-yl)pyrimidine-5-carboxamide], 7.53.
The result for `O=C(NC1CCN(C(COc2ccc(F)c(F)c2)c2ccccc2)CC1)c1cnc(-c2cccc(F)c2)nc1` (stereo not shown) [Example 49, N-{1-[2-(3,4-Difluorophenoxy)-1-phenylethyl]piperidin-4-yl}-2-(3-fluorophenyl)pyrimidine-5-carboxamide] reads 8.20; that for `O=C(NC1CCN(C(COc2cc(F)c(F)c(F)c2)c2ccccc2)CC1)c1cnc(-c2cccc(F)c2)nc1` (stereo not shown) [Example 50, 2-(3-Fluorophenyl)-N-{1-[1-phenyl-2-(3,4,5-trifluorophenoxy)ethyl]piperidin-4-yl}pyrimidine-5-carboxamide], 8.02; that for `O=C(NC1CCN(C(COc2cc(F)ccc2F)c2ccccc2)CC1)c1cnc(-c2cccc(F)c2)nc1` (stereo not shown) [Example 51, N-{1-[2-(2,5-Difluorophenoxy)-1-phenylethyl]piperidin-4-yl}-2-(3-fluorophenyl)pyrimidine-5-carboxamide], 8.00.
For `O=C(NC1CCN(CC2CCCCC2)CC1)c1cnc(-c2cccc(F)c2)nc1` [Example 52, N-[1-(Cyclohexylmethyl)piperidin-4-yl]-2-(3-fluorophenyl)pyrimidine-5-carboxamide], the pIC50 was 9.34.
With `O=C(NC1CCN(C(COc2cccc(F)c2F)c2ccccc2)CC1)c1cnc(-c2cccc(F)c2)nc1` (stereo not shown) [Example 53, N-{1-[2-(2,3-Difluorophenoxy)-1-phenylethyl]piperidin-4-yl}-2-(3-fluorophenyl)pyrimidine-5-carboxamide], the pIC50 is 7.23.
